Laboratory results from patent US5376679A, “Bicyclic or tricyclic biocidal compounds” (Shell Internationale Research Maatschappij B.V., priority 1988, dated 1994).
≈ marks a conversion by molar mass, not a printed value.

Legend:
Aspergillus niger = test: Minimum inhibitory concentration, Aspergillus niger (An); assay type: cell-based, Aspergillus niger (CMI 17454); details: 30° C., 3, 7 and 10 days
Procedure: (§1) Inocula of the fungi Aspergillus niger, Cladosporium resinae and Chaetomium globosum were prepared containing 5×10^5 conidia/ml in a potato dextrose broth. The potato dextrose broth was prepared by suspending 4 g potato extract and 20 g dextrose in 1 liter of distilled water, warming to achieve solution, separating into aliquots and sterilising by autoclaving at 121° C. for 15 minutes.
(§2) Test procedures were as follows:
(§3) (ii) Dilution Series for Other Test Bacteria, Yeast and Filamentous Fungi
(§4) Dilution series from the stock solution of each compound were prepared in sterile distilled water. These contained 50, 100, 500 and 1000 ppm compound. To duplicate wells of a compartmentalised square petri dish 0.3 ml of each test compound concentration was added together with 2.7 ml of one of the microbial inocula described above. This gave final concentrations of the test compound of 5, 10, 50 and 100 ppm.
(§5) After incubation, in the dark, at 30° C. the wells were examined for the presence or absence of growth. Bacterial and yeast cultures were examined after 24 hours and 72 hours incubation and the fungi cultures after 3, 7 and 10 days.
(§6) By means of the above tests minimum inhibitory concentrations were determined for the various test compounds.

Chaetomium globosum = test: Minimum inhibitory concentration, Chaetomium globosum (Chg); assay type: cell-based
Procedure: as §1, §2, §3, §4, §5, §6

[1] = system: Pseudocercosporella herpotrichoides; test: In vitro activity against wheat eyespot (Ph); assay type: cell-based; parameters: Ph: activity against wheat eyespot: scale not given here; details: in vitro, 100 ppm in agar, 11 days; activity grade 1 or 2, not defined
How it was run: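 Compound was dispersed from acetone into half-strength potato dextrose agar at 100 ppm final. Two 5 mm mycelial plugs were placed on each plate, which was incubated 11 days at 20–22 °C in darkness. Diametric growth minus plug width was compared with acetone-only agar.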

Fusarium culmorum = test: Activity against seedling wheat blight, soil drench (Fs); assay type: in vivo; parameters: scale not given here; details: 10 kg/ha, 21 days, activity grade 1 or 2, not defined
How it was run: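 Wheat seeds (var Waggoner) soaked 6 h at 22° C in 7×10^5 spores/ml, sown in sand; 1 day later soil drench at 10 kg/ha (0.36 g/l in 12% v/v acetone/water). Glasshouse at 25° C; at 21 days, stem-base and upper-root lesions scored visually against control seedlings.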

Cladosporium resinae = test: Minimum inhibitory concentration, Cladosporium resinae (Cr); assay type: cell-based; details: Amorphotheca resinae, 30° C., 3, 7 and 10 days
Procedure: as §1, §2, §3, §4, §5, §6

Saccharomyces cerevisiae = test: Minimum inhibitory concentration, yeast (Sc); assay type: cell-based, Saccharomyces cerevisiae (ATCC 9763); details: 30° C., 24 and 72 hours
Procedure: Inocula of S. cerevisiae were prepared as for S. aureus, B. subtilis and E. coli, but using yeast malt broth in place of the typtone soya broth. The yeast malt broth was prepared by suspending 3 g yeast extract, 3 g malt extract, 5 g peptone and 10 g dextrose in 1 liter of distilled water, warming to achieve solution and sterilising by autoclaving at 121° C. for 15 minutes.
as §2, §3, §4, §5, §6

Bacillus subtilis = test: Minimum inhibitory concentration, Bacillus subtilis (Bs); assay type: cell-based; details: 30° C., 24 and 72 hours
Procedure: (§7) In respect of S. aureus, B. subtilis and E. coli, the microorganisms were cultured in 50 ml aliquots of a tryptone soya broth in 250 ml conical flasks at 30° C. on a rotary shaker at 200 rpm for 24 hours. Tryptone soya broth was prepared by adding 17 g pancreatic digest of casein, 3 g […] digest of soyabean meal, 5 g of sodium chloride, 2.5 g of dipotassium hydrogen phosphate and 2.5 g of dextrose to 1 liter of distilled water, mixing and sterilising by autoclaving at 121° C. for 15 minutes. 1 ml aliquots of the resulting cultures were mixed with 99 ml of fresh tryptone soya broth and used as inocula for tests. […] Test procedures were as follows: (ii) Dilution Series for Other Test Bacteria, Yeast and Filamentous Fungi Dilution series from the stock solution of each compound were prepared in sterile distilled water. These contained 50, 100, 500 and 1000 ppm compound. To duplicate wells of a compartmentalised square petri dish 0.3 ml of each test compound concentration was added together with 2.7 ml of one of the microbial inocula described above. […] After incubation, in the dark, at 30° C. the wells were examined for the presence or absence of growth. Bacterial and yeast cultures were examined after 24 hours and 72 hours incubation and the fungi cultures after 3, 7 and 10 days. By means of the above tests minimum inhibitory concentrations were determined for the various test compounds.

Staphylococcus aureus = test: Minimum inhibitory concentration, Staphylococcus aureus (Sa); assay type: cell-based, Staphylococcus aureus (NCIB 6571); details: 30° C., 24 and 72 hours
Procedure: as §7

Desulfovibrio sp. = test: Minimum inhibitory concentration, sulphate-reducing bacteria (Dsp); assay type: cell-based; details: 30° C., 2, 5 and 10 days
Procedure: The sulphate reducing bacteria Desulfovibrio sp. were cultured in a modified Postgate's Medium B for 48 hours at 30° C. and used directly as an inoculum. The modified Postgate's Medium B consisted of 0.5 g dipotassium hydrogen phosphate, 1 g ammonium chloride, 1 g sodium sulphate, 5 g sodium lactate, 1 g yeast extract, 0.1 ml thioglycolic acid, 0.1 ml ascorbic acid, 0.5 g ferrous sulphate heptahydrate, 750 ml aged seawater and 250 ml distilled water, pH adjusted to 7.8, divided into aliquots and sterilised by autoclaving at 121° C. for 15 minutes. […] Test procedures were as follows: (i) Suphate-reducing Bacteria Test Dilution Series Duplicate aliquots (9.9 ml) of dilution series from the stock solutions of each compound were prepared in a modified Postgate's Medium B described above. These contained 100 ppm compound. These were then inoculated with 0.1 ml of inoculum. After incubation at 30° C., the presence or absence of growth--as indicated by a blackening of the medium due to ferrous sulphide production--was recorded at 2, 5 and 10 days. […] By means of the above tests minimum inhibitory concentrations were determined for the various test compounds.

Escherichia coli = test: Minimum inhibitory concentration, Escherichia coli (Ec); assay type: cell-based, Escherichia coli (NCIB 9517); details: 30° C., 24 and 72 hours
Procedure: as §7

SMILES	MIC (Aspergillus niger)	MIC (Chaetomium globosum; 30° C., 3, 7 and 10 days)	Ph: activity against wheat eyespot [1]	Fs: activity against seedling wheat blight (Fusarium culmorum)	MIC (Cladosporium resinae)	MIC (Saccharomyces cerevisiae)	MIC (Bacillus subtilis)	MIC (Staphylococcus aureus)	MIC (Desulfovibrio sp.)	MIC (Escherichia coli)	MIC (Chaetomium globosum; *only tested at 100 ppm)
N#CN=[N+]([O-])c1ccc2oc(=O)ccc2c1 [Example 1]	25 µg/mL (≈ 116 µM)	10 µg/mL (≈ 46.5 µM)	2	2	25 to 50 µg/mL (≈ 116 to 232 µM)	5 to 25 µg/mL (≈ 23.2 to 116 µM)	50 µg/mL (≈ 232 µM)	> 100 µg/mL	25 µg/mL (≈ 116 µM)	> 100 µg/mL	
CC1(C)Cc2cc(Cl)cc([N+]([O-])=NC#N)c2O1 [Example 4]	100 µg/mL (≈ 397 µM)	> 100 µg/mL	2	2	25 µg/mL (≈ 99.3 µM)	> 100 µg/mL	50 µg/mL (≈ 199 µM)	100 µg/mL (≈ 397 µM)	> 100 µg/mL	> 100 µg/mL	
CC1Oc2c(cc(Cl)cc2[N+]([O-])=NC#N)C1C (stereo not drawn) [Example 5]	10 µg/mL (≈ 39.7 µM)	5 to 25 µg/mL (≈ 19.9 to 99.3 µM)	2	2	25 µg/mL (≈ 99.3 µM)	50 µg/mL (≈ 199 µM)	100 µg/mL (≈ 397 µM)	> 100 µg/mL	> 100 µg/mL	> 100 µg/mL	
CC1Cc2cc(Cl)cc([N+]([O-])=NC#N)c2O1 (stereo not drawn) [Example 6]	25 µg/mL (≈ 105 µM)	25 µg/mL (≈ 105 µM)	2	2	25 µg/mL (≈ 105 µM)	25 µg/mL (≈ 105 µM)	100 µg/mL (≈ 421 µM)	100 µg/mL (≈ 421 µM)	100 µg/mL (≈ 421 µM)	> 100 µg/mL	
CC1Oc2c(cccc2[N+]([O-])=NC#N)C1C (stereo not drawn) [Example 9]	25 µg/mL (≈ 115 µM)	50 µg/mL (≈ 230 µM)	2	2	25 µg/mL (≈ 115 µM)	50 µg/mL (≈ 230 µM)	50 µg/mL (≈ 230 µM)	> 100 µg/mL	100 µg/mL (≈ 460 µM)	> 100 µg/mL	
N#CN=[N+]([O-])c1cc(Cl)cc2c1OC(CCl)C2 (stereo not drawn) [Example 10]	25 µg/mL (≈ 91.9 µM)		2	2	25 µg/mL (≈ 91.9 µM)	> 100 µg/mL	> 100 µg/mL	> 100 µg/mL	100 µg/mL (≈ 368 µM)	> 100 µg/mL	< 100 µg/mL
